Measured values from PubChem BioAssay AID1745844 (Carcinogenic Potency Database (CPDB), 2022).
Several values for one entry are separate records, joined by “and”; a condition that tells them apart may be missing. Identical values can stand only once.

Test system: rodent lifetime carcinogenesis bioassay, tumor incidence TD50
Test: carcinogenic potency in animals, long-term in vivo studies, CPDB compilation (AID 1745844)
Conditions: rat, strain Sprague-Dawley

`C=CCl` was tested, and the TD50 (females, inhaled, site: extrahepatic tissue, lesion: angioma, dosed 52 weeks, study length 111 weeks) was 115 mg/kg/day, the TD50 (females, inhaled, site: extrahepatic tissue, lesion: angioma, dosed 52 weeks, study length 139 weeks) was 399 mg/kg/day and the TD50 (females, inhaled, site: extrahepatic tissue, lesion: angiosarcoma, dosed 25 weeks, study length 135 weeks) was 2420 mg/kg/day. For the same molecule, the TD50 (females, inhaled, site: extrahepatic tissue, lesion: angiosarcoma, dosed 52 weeks, study length 111 weeks) was 52.9 mg/kg/day, the TD50 (females, inhaled, site: extrahepatic tissue, lesion: angiosarcoma, dosed 52 weeks, study length 131 weeks) was 21400 mg/kg/day and the TD50 (females, inhaled, site: kidney, lesion: nephroblastoma, dosed 25 weeks, study length 135 weeks) was 3140 mg/kg/day. It also gave a TD50 (females, inhaled, site: kidney, lesion: nephroblastoma, dosed 52 weeks, study length 111 weeks) of 17.5 mg/kg/day, a TD50 (females, inhaled, site: kidney, lesion: nephroblastoma, dosed 52 weeks, study length 139 weeks) of 230 mg/kg/day and a TD50 (females, inhaled, site: liver, lesion: angioma, dosed 25 weeks, study length 127 weeks) of 913 mg/kg/day. The TD50 (females, inhaled, site: liver, lesion: angioma, dosed 25 weeks, study length 135 weeks) was 507 mg/kg/day, the TD50 (females, inhaled, site: liver, lesion: angioma, dosed 52 weeks, study length 111 weeks) was 30.7 mg/kg/day and the TD50 (females, inhaled, site: liver, lesion: angioma, dosed 52 weeks, study length 139 weeks) was 378 mg/kg/day. The TD50 (females, inhaled, site: liver, lesion: angioma, dosed 71 weeks, study length 71 weeks) was 9130 mg/kg/day, the TD50 (females, inhaled, site: liver, lesion: angiosarcoma, dosed 25 weeks, study length 127 weeks) was 4460 mg/kg/day and the TD50 (females, inhaled, site: liver, lesion: angiosarcoma, dosed 25 weeks, study length 135 weeks) was 2460 mg/kg/day. The TD50 (females, inhaled, site: liver, lesion: angiosarcoma, dosed 52 weeks, study length 111 weeks) was 20.2 mg/kg/day, the TD50 (females, inhaled, site: liver, lesion: angiosarcoma, dosed 52 weeks, study length 131 weeks) was 735 mg/kg/day and 21 mg/kg/day and the TD50 (females, inhaled, site: liver, lesion: angiosarcoma, dosed 52 weeks, study length 139 weeks) was 113 mg/kg/day. It also gave a TD50 (females, inhaled, site: liver, lesion: angiosarcoma, dosed 71 weeks, study length 71 weeks) of 240 mg/kg/day, a TD50 (females, inhaled, site: liver, lesion: hepatocellular carcinoma, dosed 71 weeks, study length 71 weeks) of 1720 mg/kg/day and a TD50 (females, inhaled, site: liver, lesion: hepatoma, dosed 25 weeks, study length 135 weeks) of 357 mg/kg/day. The TD50 (females, inhaled, site: liver, lesion: hepatoma, dosed 52 weeks, study length 131 weeks) was 244 mg/kg/day, the TD50 (females, inhaled, site: liver, lesion: hepatoma, dosed 52 weeks, study length 139 weeks) was 140 mg/kg/day and the TD50 (females, inhaled, site: mammary gland, lesion: adenocarcinoma, dosed 25 weeks, study length 135 weeks) was 291 mg/kg/day. The TD50 (females, inhaled, site: mammary gland, lesion: adenocarcinoma, dosed 52 weeks, study length 111 weeks) was 5.91 mg/kg/day, the TD50 (females, inhaled, site: mammary gland, lesion: adenocarcinoma, dosed 52 weeks, study length 131 weeks) was 1.66 mg/kg/day and the TD50 (females, inhaled, site: mammary gland, lesion: adenocarcinoma, dosed 52 weeks, study length 139 weeks) was 141 mg/kg/day. It also gave a TD50 (males, by gavage, site: Zymbal's gland, lesion: carcinoma, dosed 52 weeks, study length 127 weeks) of 315 mg/kg/day, a TD50 (males, by gavage, site: Zymbal's gland, lesion: carcinoma, dosed 59 weeks, study length 129 weeks) of 4.75 mg/kg/day and a TD50 (males, by gavage, site: any site (literature study), lesion: several types, types named in the paper, dosed 52 weeks, study length 127 weeks) of 37.9 mg/kg/day. For the same molecule, the TD50 (males, by gavage, site: any site (literature study), lesion: several types, types named in the paper, dosed 59 weeks, study length 129 weeks) was 16.1 mg/kg/day, the TD50 (males, by gavage, site: extrahepatic tissue, lesion: angioma, dosed 52 weeks, study length 127 weeks) was 409 mg/kg/day and the TD50 (males, by gavage, site: kidney, lesion: nephroblastoma, dosed 52 weeks, study length 127 weeks) was 102 mg/kg/day. It also gave a TD50 (males, by gavage, site: liver, lesion: angioma, dosed 52 weeks, study length 127 weeks) of 430 mg/kg/day, a TD50 (males, by gavage, site: liver, lesion: angiosarcoma, dosed 52 weeks, study length 127 weeks) of 57.4 mg/kg/day and a TD50 (males, by gavage, site: liver, lesion: angiosarcoma, dosed 59 weeks, study length 129 weeks) of 8.45 mg/kg/day. For the same molecule, the TD50 (males, by gavage, site: liver, lesion: hepatoma, dosed 59 weeks, study length 129 weeks) was 3.36 mg/kg/day, the TD50 (males, inhaled, site: Zymbal's gland, lesion: carcinoma, dosed 25 weeks, study length 115 weeks) was 284 mg/kg/day and the TD50 (males, inhaled, site: Zymbal's gland, lesion: carcinoma, dosed 25 weeks, study length 139 weeks) was 226 mg/kg/day. For the same molecule, the TD50 (males, inhaled, site: Zymbal's gland, lesion: carcinoma, dosed 52 weeks, study length 131 weeks) was 2320 mg/kg/day, the TD50 (males, inhaled, site: Zymbal's gland, lesion: carcinoma, dosed 52 weeks, study length 139 weeks) was 50.4 mg/kg/day and the TD50 (males, inhaled, site: adrenal gland, lesion: one or several types, types not named, dosed 52 weeks, study length 130 weeks) was 251 mg/kg/day. The TD50 (males, inhaled, site: any site (literature study), lesion: several types, types named in the paper, dosed 25 weeks, study length 115 weeks) was 134 mg/kg/day, the TD50 (males, inhaled, site: any site (literature study), lesion: several types, types named in the paper, dosed 25 weeks, study length 139 weeks) was 284 mg/kg/day and the TD50 (males, inhaled, site: any site (literature study), lesion: several types, types named in the paper, dosed 52 weeks, study length 130 weeks) was 17.3 mg/kg/day. The TD50 (males, inhaled, site: any site (literature study), lesion: several types, types named in the paper, dosed 52 weeks, study length 131 weeks) was 950 mg/kg/day, the TD50 (males, inhaled, site: any site (literature study), lesion: several types, types named in the paper, dosed 52 weeks, study length 139 weeks) was 8.67 mg/kg/day and the TD50 (males, inhaled, site: brain, lesion: neuroblastoma, dosed 52 weeks, study length 131 weeks) was 4580 mg/kg/day. The TD50 (males, inhaled, site: extrahepatic tissue, lesion: angioma, dosed 25 weeks, study length 115 weeks) was 5810 mg/kg/day, the TD50 (males, inhaled, site: extrahepatic tissue, lesion: angioma, dosed 52 weeks, study length 123 weeks) was 31.4 mg/kg/day and the TD50 (males, inhaled, site: extrahepatic tissue, lesion: angioma, dosed 52 weeks, study length 131 weeks) was 8180 mg/kg/day. The TD50 (males, inhaled, site: extrahepatic tissue, lesion: angioma, dosed 52 weeks, study length 139 weeks) was 18 mg/kg/day.
